# How the values were obtained:
# FGFR1 = target: T1, FGFR1 (Homo sapiens, UniProt P11362); test: Kinase binding assay (Kd), kinase-tagged T7 phage, affinity beads, qPCR; conditions: in vitro binding assay, 11-point 3-fold dilution series
# T1 construct: made in house; host or cells: E. coli (BL21-derived) infected with T7 phage
# Description: (§1) Kinase-tagged T7 phage strains were prepared in an E. coli host derived from the BL21 strain. E. coli were grown to log-phase and infected with T7 phage and incubated with shaking at 32° C. until lysis. The lysates were centrifuged and filtered to remove cell debris. Streptavidin-coated magnetic beads were treated with biotinylated small molecule ligands for 30 minutes at room temperature to generate affinity resins for kinase assays. The liganded beads were blocked with excess biotin and washed with blocking buffer SeaBlock (Pierce), 1% BSA, 0.05% Tween 20, 1 mM DTT to remove unbound ligand and to reduce non-specific binding. Binding reactions were assembled by combining kinases, liganded affinity beads, and test compounds in 1× binding buffer (20% SeaBlock, 0.17×PBS, 0.05% Tween 20, 6 mM DTT).
# (§2) Test compounds were prepared as 111× stocks in 100% DMSO. Kds were determined using an 11-point 3-fold compound dilution series with three DMSO control points. All compounds for Kd measurements are distributed by acoustic transfer (non-contact dispensing) in 100% DMSO. The compounds were then diluted directly into the assays such that the final concentration of DMSO was 0.9%. All reactions performed in polypropylene 384-well plate. Each was a final volume of 0.02 ml. The assay plates were incubated at room temperature with shaking for 1 hour and the affinity beads were washed with wash buffer (1×PBS, 0.05% Tween 20). The beads were then re-suspended in elution buffer (1×PBS, 0.05% Tween 20, 0.5 μM non-biotinylated affinity ligand) and incubated at room temperature with shaking for 30 minutes. The kinase concentration in the eluates was measured by qPCR.
# (§3) Binding constants were calculated with a standard dose-response curve using the Hill equation: […]
# (§4) The Hill Slope was set to −1. Curves were fitted using a non-linear least square fit with the Levenberg-Marquardt algorithm.
# FGFR2 = target: T2, FGFR2 (Homo sapiens, UniProt P21802); test: as above; conditions: in vitro binding assay, 11-point 3-fold dilution series
# T2 construct: made in house; host or cells: E. coli (BL21-derived) infected with T7 phage
# T2 sequence (P21802 22-821): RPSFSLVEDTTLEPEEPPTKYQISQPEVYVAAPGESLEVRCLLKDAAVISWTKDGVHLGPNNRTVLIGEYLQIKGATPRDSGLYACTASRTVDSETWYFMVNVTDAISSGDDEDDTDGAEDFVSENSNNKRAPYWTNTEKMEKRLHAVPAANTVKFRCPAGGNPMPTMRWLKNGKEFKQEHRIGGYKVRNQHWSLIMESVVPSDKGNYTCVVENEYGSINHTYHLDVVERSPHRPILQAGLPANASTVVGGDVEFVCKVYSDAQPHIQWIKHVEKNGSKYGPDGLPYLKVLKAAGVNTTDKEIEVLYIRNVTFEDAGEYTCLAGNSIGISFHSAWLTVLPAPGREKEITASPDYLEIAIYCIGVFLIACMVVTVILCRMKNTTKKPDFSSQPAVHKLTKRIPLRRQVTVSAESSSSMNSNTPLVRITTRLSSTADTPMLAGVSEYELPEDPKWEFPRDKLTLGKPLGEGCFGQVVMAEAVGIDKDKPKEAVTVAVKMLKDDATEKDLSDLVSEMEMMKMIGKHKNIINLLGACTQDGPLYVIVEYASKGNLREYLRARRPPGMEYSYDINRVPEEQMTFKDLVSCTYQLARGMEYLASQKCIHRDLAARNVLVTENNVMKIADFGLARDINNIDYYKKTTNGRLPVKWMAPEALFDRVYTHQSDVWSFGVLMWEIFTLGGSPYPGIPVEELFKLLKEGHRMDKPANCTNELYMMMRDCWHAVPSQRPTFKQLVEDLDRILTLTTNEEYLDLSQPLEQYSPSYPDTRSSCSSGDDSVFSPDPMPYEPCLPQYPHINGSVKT
# Description: as §1, §2, §3, §4
# FGFR3 = target: T3, FGFR3 (Homo sapiens, UniProt P22607); test: as above; conditions: in vitro binding assay, 11-point 3-fold dilution series
# T3 construct: made in house; host or cells: E. coli (BL21-derived) infected with T7 phage
# T3 sequence (P22607 23-806): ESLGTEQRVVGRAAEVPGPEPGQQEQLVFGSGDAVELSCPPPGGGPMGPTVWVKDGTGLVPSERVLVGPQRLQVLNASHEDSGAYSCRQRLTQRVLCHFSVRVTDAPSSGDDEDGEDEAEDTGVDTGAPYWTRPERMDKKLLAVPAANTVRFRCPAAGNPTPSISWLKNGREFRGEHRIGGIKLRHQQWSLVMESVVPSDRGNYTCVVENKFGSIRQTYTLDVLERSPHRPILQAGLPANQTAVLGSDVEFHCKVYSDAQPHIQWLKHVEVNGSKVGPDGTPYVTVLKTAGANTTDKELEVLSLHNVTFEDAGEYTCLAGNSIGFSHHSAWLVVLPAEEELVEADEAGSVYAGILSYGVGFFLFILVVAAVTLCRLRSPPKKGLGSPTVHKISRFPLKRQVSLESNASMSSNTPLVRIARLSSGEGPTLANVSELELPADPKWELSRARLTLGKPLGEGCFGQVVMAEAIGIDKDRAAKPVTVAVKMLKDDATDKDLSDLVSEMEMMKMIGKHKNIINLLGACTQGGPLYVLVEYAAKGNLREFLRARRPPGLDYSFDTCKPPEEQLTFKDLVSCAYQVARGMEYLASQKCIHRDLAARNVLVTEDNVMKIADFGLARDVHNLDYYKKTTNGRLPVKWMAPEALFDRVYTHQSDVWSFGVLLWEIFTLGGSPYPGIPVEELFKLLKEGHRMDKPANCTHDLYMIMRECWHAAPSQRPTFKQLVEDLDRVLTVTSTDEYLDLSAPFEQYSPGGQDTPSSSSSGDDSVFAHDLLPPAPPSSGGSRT
# Description: as §1, §2, §3, §4
# FGFR3 (V555M) = target: T4, FGFR3 (V555M) (Homo sapiens, UniProt P22607, V555M); test: as above; conditions: in vitro binding assay, 11-point 3-fold dilution series
# T4 construct: made in house; host or cells: E. coli (BL21-derived) infected with T7 phage
# T4 sequence (P22607 23-806 V555M): as the sequence (P22607 23-806) above, with V533M counted along it
# Description: as §1, §2, §3, §4
# FGFR4 = target: T5, FGFR4 (Homo sapiens, UniProt P22455); test: as above; conditions: in vitro binding assay, 11-point 3-fold dilution series
# T5 construct: made in house; host or cells: E. coli (BL21-derived) infected with T7 phage
# T5 sequence (P22455 22-802): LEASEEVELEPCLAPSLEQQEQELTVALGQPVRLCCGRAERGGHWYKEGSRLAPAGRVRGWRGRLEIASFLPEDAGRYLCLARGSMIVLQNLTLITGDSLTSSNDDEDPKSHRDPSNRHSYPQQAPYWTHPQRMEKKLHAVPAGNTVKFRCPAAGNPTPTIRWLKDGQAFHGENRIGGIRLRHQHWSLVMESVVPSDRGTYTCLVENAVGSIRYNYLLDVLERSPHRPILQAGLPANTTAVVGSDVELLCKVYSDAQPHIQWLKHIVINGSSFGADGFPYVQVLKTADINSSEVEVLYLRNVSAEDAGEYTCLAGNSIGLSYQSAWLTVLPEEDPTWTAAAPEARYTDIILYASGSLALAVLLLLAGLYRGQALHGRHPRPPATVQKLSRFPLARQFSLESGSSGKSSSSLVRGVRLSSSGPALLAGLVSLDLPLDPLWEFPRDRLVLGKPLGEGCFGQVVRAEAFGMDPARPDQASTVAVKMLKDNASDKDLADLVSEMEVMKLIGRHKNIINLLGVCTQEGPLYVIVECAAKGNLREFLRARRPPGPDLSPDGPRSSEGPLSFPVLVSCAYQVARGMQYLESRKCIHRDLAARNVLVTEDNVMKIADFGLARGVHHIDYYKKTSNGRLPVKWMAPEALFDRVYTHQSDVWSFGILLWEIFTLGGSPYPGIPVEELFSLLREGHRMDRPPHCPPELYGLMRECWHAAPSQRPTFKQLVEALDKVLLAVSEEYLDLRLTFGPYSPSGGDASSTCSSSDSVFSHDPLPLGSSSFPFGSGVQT
# Description: as §1, §2, §3, §4
# Ba/F3 BCR-FGFR1 = target: T6, Ba/F3 BCR-FGFR1 (Homo sapiens, UniProt P11362); test: Ba/F3 cell viability assay (CellTiter-Glo 2.0); assay type: cell-based; conditions: Ba/F3 cell data, BCR-FGFR1 fusion, 48 hours
# T6 construct: BCR (fusion partner); host or cells: Ba/F3; the other entry of the earlier key: BCR (P11274, Breakpoint cluster region protein)
# T6 sequence (P11362 478-767 limits assumed): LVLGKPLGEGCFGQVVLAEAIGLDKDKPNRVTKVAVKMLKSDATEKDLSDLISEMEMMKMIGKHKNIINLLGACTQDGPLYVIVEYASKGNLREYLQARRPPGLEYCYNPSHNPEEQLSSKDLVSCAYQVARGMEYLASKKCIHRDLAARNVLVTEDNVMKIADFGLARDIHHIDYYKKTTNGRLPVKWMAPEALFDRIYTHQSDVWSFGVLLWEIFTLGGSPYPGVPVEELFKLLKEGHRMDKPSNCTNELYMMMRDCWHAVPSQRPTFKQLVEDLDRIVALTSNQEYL
# Ba/F3 BCR-FGFR2 = target: T7, Ba/F3 BCR-FGFR2 (Homo sapiens, UniProt P21802); test: Ba/F3 cell viability assay (CellTiter-Glo 2.0); assay type: cell-based; conditions: Ba/F3 cell data, BCR-FGFR2 fusion, 48 hours
# T7 construct: BCR (fusion partner); host or cells: Ba/F3; the other entry of the earlier key: BCR (P11274, Breakpoint cluster region protein)
# T7 sequence (P21802 481-770 limits assumed): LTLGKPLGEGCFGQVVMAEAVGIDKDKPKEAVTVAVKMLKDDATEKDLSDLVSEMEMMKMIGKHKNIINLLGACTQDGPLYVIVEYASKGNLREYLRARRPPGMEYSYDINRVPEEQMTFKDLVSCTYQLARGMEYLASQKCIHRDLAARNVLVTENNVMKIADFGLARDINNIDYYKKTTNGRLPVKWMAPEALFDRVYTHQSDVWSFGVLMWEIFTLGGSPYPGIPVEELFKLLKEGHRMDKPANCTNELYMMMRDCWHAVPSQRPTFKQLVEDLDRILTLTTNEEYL
# Ba/F3 FGFR3-BAIAP2L1 = target: T8, Ba/F3 FGFR3-BAIAP2L1 (Homo sapiens, UniProt P22607); test: Ba/F3 cell viability assay (CellTiter-Glo 2.0); assay type: cell-based; conditions: Ba/F3 cell data, FGFR3-BAIAP2L1 fusion, 48 hours
# T8 construct: BAIAP2L1 (fusion partner, Q9UHR4 if human); host or cells: Ba/F3; the other entry of the earlier key: BAIAP2L1 (Q9UHR4, BAR/IMD domain-containing adapter protein 2-like 1)
# T8 sequence (P22607 397-758 limits assumed): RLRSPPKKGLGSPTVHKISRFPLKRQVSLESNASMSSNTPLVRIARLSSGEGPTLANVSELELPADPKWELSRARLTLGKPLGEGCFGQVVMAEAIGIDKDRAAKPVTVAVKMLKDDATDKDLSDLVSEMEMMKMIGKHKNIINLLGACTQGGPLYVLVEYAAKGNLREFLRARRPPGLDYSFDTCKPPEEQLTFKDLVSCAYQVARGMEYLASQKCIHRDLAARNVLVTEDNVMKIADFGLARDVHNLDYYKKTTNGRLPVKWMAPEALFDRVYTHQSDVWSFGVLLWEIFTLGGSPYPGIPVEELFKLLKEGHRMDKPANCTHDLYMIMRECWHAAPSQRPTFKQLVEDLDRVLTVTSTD
# Ba/F3 ETV5-FGFR4 = target: T9, Ba/F3 ETV5-FGFR4 (Homo sapiens, UniProt P22455); test: Ba/F3 cell viability assay (CellTiter-Glo 2.0); assay type: cell-based; conditions: Ba/F3 cell data, ETV5-FGFR4 fusion, 48 hours
# T9 construct: host or cells: Ba/F3; the other entry of the earlier key: ETV5 (P41161, ETS translocation variant 5)
# T9 sequence (P22455 467-755 limits assumed): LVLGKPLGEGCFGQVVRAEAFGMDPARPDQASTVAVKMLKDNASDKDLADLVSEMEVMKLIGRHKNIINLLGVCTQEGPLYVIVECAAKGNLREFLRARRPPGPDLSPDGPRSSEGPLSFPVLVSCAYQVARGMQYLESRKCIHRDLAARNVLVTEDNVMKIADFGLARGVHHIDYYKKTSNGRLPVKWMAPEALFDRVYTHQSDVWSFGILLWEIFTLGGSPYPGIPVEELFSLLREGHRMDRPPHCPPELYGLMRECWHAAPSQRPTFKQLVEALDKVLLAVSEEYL
# Source text: Experimental Purpose: Recombinant kinase fusions are transduced into parental Ba/F3, which becomes dependent upon this constitutive kinase activity for IL3-independent survival. Inhibition of kinase activity leads to cell death, which is monitored using CellTiter-Glo® 2.0 (Promega) which measures intracellular ATP concentration that in turn serves as a marker for viability. BCR-FGFR1 Ba/F3, BCR-FGFR2 and FGFR3-BAIAP2L1 Ba/F3 were obtained from Advanced Cellular Dynamics (Seattle, WA). ETV6-FGFR4 was obtained from Kyinno (Waltham, MA).
# Cell Viability Assay Procedure: Cell Titer-Glo® 2.0 Luminescent cell viability assay reagent was purchased from Promega (Madison, WI). Ba/F3 cell lines were cultured in RPMI1640 media supplemented with 10% fetal bovine serum. Cultures were maintained at 37° C. in a humidified atmosphere of 5% CO2 and 95% air.
# Cells were plated in 96-well clear bottom/white plates (Corning #3903) at 10,000 cells/well in 100 μl of media, incubated overnight. The next day, test compound DMSO stock solutions were made at 10 mM and 2 μM final concentration. Compounds were then added to cells in a 9-dose, 10-fold dilution series starting at 30 μM with an HP 300e Digital Dispenser (each dose was applied in triplicate). DMSO was backfilled to each well up to 301 nL total volume of test compound+DMSO, and a total of 301 nL DMSO was added to a control/no test compound well in triplicate. The cells in cell culture plates were incubated with the compounds at 37° C. and 5% CO2 for 48 hours. Then 50 μl of Cell Titer Glo 2.0 reagent was added to each well of the cell culture plates. The contents were covered from light and mixed on an orbital shaker at room temperature for 10 min. Luminescence was recorded by a Synergy H1 Microplate Reader (Biotek, Winooski, VT). Cells were assessed as a percentage of DMSO only treated control cells. Curves were plotted and IC50 values were calculated using the GraphPad Prism 8 program based on a sigmoidal dose-response equation (4 parameter).
# T1 sequence (P11362 22-822): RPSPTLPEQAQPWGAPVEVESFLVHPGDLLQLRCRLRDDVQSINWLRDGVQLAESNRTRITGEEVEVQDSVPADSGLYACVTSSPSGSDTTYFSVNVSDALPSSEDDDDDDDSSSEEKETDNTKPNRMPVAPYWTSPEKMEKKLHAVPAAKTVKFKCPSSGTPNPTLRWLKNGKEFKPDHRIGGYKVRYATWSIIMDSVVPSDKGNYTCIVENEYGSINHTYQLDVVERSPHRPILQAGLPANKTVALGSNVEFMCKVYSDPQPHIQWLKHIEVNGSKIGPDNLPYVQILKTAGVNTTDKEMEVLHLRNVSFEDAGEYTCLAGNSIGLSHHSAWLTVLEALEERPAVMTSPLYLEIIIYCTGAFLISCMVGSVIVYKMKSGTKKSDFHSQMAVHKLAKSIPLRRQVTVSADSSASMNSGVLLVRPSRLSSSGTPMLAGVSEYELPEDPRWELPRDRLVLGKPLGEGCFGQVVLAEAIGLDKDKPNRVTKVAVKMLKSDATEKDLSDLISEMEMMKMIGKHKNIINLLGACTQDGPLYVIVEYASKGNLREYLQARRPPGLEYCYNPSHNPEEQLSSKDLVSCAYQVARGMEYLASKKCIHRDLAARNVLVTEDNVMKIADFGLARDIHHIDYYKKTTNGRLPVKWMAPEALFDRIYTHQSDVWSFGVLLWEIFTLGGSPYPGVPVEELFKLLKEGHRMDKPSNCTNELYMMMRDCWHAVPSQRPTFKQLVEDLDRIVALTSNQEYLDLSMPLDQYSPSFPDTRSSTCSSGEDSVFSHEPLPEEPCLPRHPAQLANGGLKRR
SMILES,Kd (FGFR1),Kd (FGFR2),Kd (FGFR3),Kd (FGFR3 (V555M)),Kd (FGFR4),Kd (Ba/F3 BCR-FGFR1),Kd (Ba/F3 BCR-FGFR2),Kd (Ba/F3 FGFR3-BAIAP2L1),Kd (Ba/F3 ETV5-FGFR4)
"CCC(=O)N1CCC2(CC1)CC(n1cc(-c3cc(O[C@@H](CO)c4ccc(F)cn4)c4c(C#N)cnn4c3)cn1)C2 [Example 26, (R)-4-(1-(5-fluoropyridin-2-yl)-2-hydroxyethoxy)-6-(1-(7-propionyl-7-azaspiro[3.5]nonan-2-yl)-1H-pyrazol-4-yl)pyrazolo[1,5-a]pyridine-3-carbonitrile]",100 to 250 nM,100 to 250 nM,100 to 250 nM,250 to 1000 nM,250 to 1000 nM,–,–,–,–
"C=CC(=O)N1CCC2(CC1)CC(n1nnc(-c3cc(O[C@@H](CO)c4ccc(F)cn4)c4c(C#N)cnn4c3)c1C)C2 [Example 12, (R)-6-(1-(7-acryloyl-7-azaspiro[3.5]nonan-2-yl)-5-methyl-1H-1,2,3-triazol-4-yl)-4-(1-(5-fluoropyridin-2-yl)-2-hydroxyethoxy)pyrazolo[1,5-a]pyridine-3-carbonitrile]",250 to 1000 nM,250 to 1000 nM,100 to 250 nM,250 to 1000 nM,≥ 1000 nM,≥ 1000 nM,≥ 1000 nM,250 to 1000 nM,≥ 1000 nM
"C=CC(=O)N1CC(C(=O)N2CCC(n3nnc(-c4cc(O[C@@H](CO)c5ccccn5)c5c(C#N)cnn5c4)c3C)CC2)C1 [Example 17, (R)-6-(1-(1-(1-acryloylazetidine-3-carbonyl)piperidin-4-yl)-5-methyl-1H-1,2,3-triazol-4-yl)-4-(2-hydroxy-1-(pyridin-2-yl)ethoxy)pyrazolo[1,5-a]pyridine-3-carbonitrile]",≥ 1000 nM,250 to 1000 nM,100 to 250 nM,250 to 1000 nM,≥ 1000 nM,–,–,–,–
"CCC(=O)N1CCC2(CC1)CC(n1cc(-c3cc(O[C@H](CO)c4ccc(F)cn4)c4c(C#N)cnn4c3)cn1)C2 [Example 28, (S)-4-(1-(5-fluoropyridin-2-yl)-2-hydroxyethoxy)-6-(1-(7-propionyl-7-azaspiro[3.5]nonan-2-yl)-1H-pyrazol-4-yl)pyrazolo[1,5-a]pyridine-3-carbonitrile]",0.1 to 100 nM,0.1 to 100 nM,0.1 to 100 nM,0.1 to 100 nM,0.1 to 100 nM,100 to 250 nM,0.1 to 100 nM,0.1 to 100 nM,100 to 250 nM
"C=CC(=O)N1CC(F)(C(=O)N2CCC(n3nnc(-c4cc(O[C@@H](CO)c5ccccn5)c5c(C#N)cnn5c4)c3C)CC2)C1 (single isomer, unassigned) [Example 19]",≥ 1000 nM,250 to 1000 nM,100 to 250 nM,250 to 1000 nM,≥ 1000 nM,–,–,–,–
"C=CC(=O)N1CCC2(CC1)CC(n1nnc(-c3cc(O[C@H](C)c4ccccn4)c4c(Cl)cnn4c3)c1C)C2 [Example 4, (R)-1-(2-(4-(3-chloro-4-(1-(pyridin-2-yl)ethoxy)-pyrazolo[1,5-a]pyridin-6-yl)-5-methyl-1H-1,2,3-triazol-1-yl)-7-azaspiro[3.5]nonan-7-yl)prop-2-en-1-one]",0.1 to 100 nM,–,0.1 to 100 nM,–,–,100 to 250 nM,100 to 250 nM,0.1 to 100 nM,250 to 1000 nM
"C=CC(=O)N1CCC2(CC1)CC(n1cc(-c3cc(O[C@@H](CO)c4ccc(F)cn4)c4c(C#N)cnn4c3)cn1)C2 [Example 25, (R)-6-(1-(7-acryloyl-7-azaspiro[3.5]nonan-2-yl)-1H-pyrazol-4-yl)-4-(1-(5-fluoropyridin-2-yl)-2-hydroxyethoxy)pyrazolo[1,5-a]pyridine-3-carbonitrile]",100 to 250 nM,100 to 250 nM,100 to 250 nM,250 to 1000 nM,250 to 1000 nM,–,–,–,–
"CCC(=O)N1CC(C(=O)N2CCC(n3nnc(-c4cc(OC(CO)c5ccccn5)c5c(C#N)cnn5c4)c3C)CC2)C1 (centres unmarked) [Example 16, 4-(2-hydroxy-1-(pyridin-2-yl)ethoxy)-6-(5-methyl-1-(1-(1-propionylazetidine-3-carbonyl)piperidin-4-yl)-1H-1,2,3-triazol-4-yl)pyrazolo[1,5-a]pyridine-3-carbonitrile]",100 to 250 nM,0.1 to 100 nM,0.1 to 100 nM,0.1 to 100 nM,0.1 to 100 nM,–,–,–,–
"C=CC(=O)N1CCC2(CC1)CC(n1ncc(-c3cc(O[C@@H](CO)c4ccccn4)c4c(Cl)cnn4c3)c1C)C2 [Example 5, (R)-1-(2-(4-(3-chloro-4-(2-hydroxy-1-(pyridin-2-yl)ethoxy)pyrazolo[1,5-a]pyridin-6-yl)-5-methyl-1H-pyrazol-1-yl)-7-azaspiro[3.5]nonan-7-yl)prop-2-en-1-one]",≥ 1000 nM,–,250 to 1000 nM,–,–,≥ 1000 nM,≥ 1000 nM,250 to 1000 nM,≥ 1000 nM
"C=CC(=O)N1CCC2(CC1)CC(n1ncc(-c3cc(O[C@@H](CO)c4ccc(F)cn4)c4c(C#N)cnn4c3)c1C)C2 [Example 10, (R)-6-(1-(7-acryloyl-7-azaspiro[3.5]nonan-2-yl)-5-methyl-1H-pyrazol-4-yl)-4-(1-(5-fluoropyridin-2-yl)-2-hydroxyethoxy)pyrazolo[1,5-a]pyridine-3-carbonitrile]",250 to 1000 nM,250 to 1000 nM,250 to 1000 nM,250 to 1000 nM,–,≥ 1000 nM,≥ 1000 nM,250 to 1000 nM,≥ 1000 nM
"C=CC(=O)N1CCC2(CC1)CC(n1ncc(-c3cc(OC(CO)c4ccccn4)c4c(Cl)cnn4c3)c1C)C2 (single isomer, unassigned) [Example 6]",100 to 250 nM,–,0.1 to 100 nM,–,–,250 to 1000 nM,250 to 1000 nM,0.1 to 100 nM,250 to 1000 nM
"C#CC(=O)N1CC(OC)(C(=O)N2CCC(n3nnc(-c4cc(OC(CO)c5ccccn5)c5c(C#N)cnn5c4)c3C)CC2)C1 (centres unmarked) [Example 24, 4-(2-hydroxy-1-(pyridin-2-yl)ethoxy)-6-(1-(1-(3-methoxy-1-propioloylazetidine-3-carbonyl)piperidin-4-yl)-5-methyl-1H-1,2,3-triazol-4-yl)pyrazolo[1,5-a]pyridine-3-carbonitrile]",0.1 to 100 nM,0.1 to 100 nM,0.1 to 100 nM,0.1 to 100 nM,0.1 to 100 nM,–,–,–,–
